Measured values: US10251395B2, “Substituted furano-/thienocycloalkylamino-2-pyrimidine derivatives and use thereof for controlling undesired plant growth” (Bayer CropScience Aktiengesellschaft, priority 2015, dated 2019)

Columns and labels:
Veronica persica [1] = test: Post-emergence herbicidal effect; assay type: in vivo; settings: assessed visually after about 3 weeks vs untreated controls
Method in brief: (§1)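 Visual % damage vs untreated plants, ~3 wk after spraying (100% = dead, 0% = as control). Post-emergence foliar spray at one-leaf stage; WP/EC in water, 600–800 L/ha + 0.2% wetting agent; sandy loam, greenhouse.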

Viola tricolor [2] = test: Post-emergence herbicidal effect; assay type: in vivo; settings: assessed visually after about 3 weeks vs untreated controls
Method in brief: as §1

Ipomoea purpurea = test: Post-emergence herbicidal effect; assay type: in vivo; settings: 320 g/ha, assessed visually after about 3 weeks vs untreated controls
Method in brief: as §1

logP (HCOOH) = assay type: physicochemical; settings: for chromatographic logP: HCOOH (formic acid)
Excerpt: Table 2 (physicochemical characterization of selected synthesis examples)

Echinochloa crus-galli = test: Pre-emergence herbicidal effect; assay type: in vivo; settings: Dosage 320 g/ha, scored visually after 3 weeks
Method in brief: (§2)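 Seeds sown in sandy loam in wood-fiber pots and covered with soil; WP or EC formulations applied to the soil surface as aqueous suspension or emulsion at 600 to 800 L/ha water with 0.2% wetting agent. Greenhouse, 3 weeks; damage scored visually versus untreated controls (100% = plants died, 0% = like control).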

Polygonum convolvulus = test: Pre-emergence herbicidal effect; assay type: in vivo; settings: Dosage 320 g/ha, scored visually after 3 weeks
Method in brief: as §2

Veronica persica [3] = test: Pre-emergence herbicidal effect; assay type: in vivo; settings: scored visually after 3 weeks
Method in brief: as §2

Stellaria media [4] = test: Pre-emergence herbicidal effect; assay type: in vivo; settings: scored visually after 3 weeks
Method in brief: as §2

Amaranthus retroflexus [5] = test: Pre-emergence herbicidal effect; assay type: in vivo; settings: scored visually after 3 weeks
Method in brief: as §2

Alopecurus myosuroides = test: Pre-emergence herbicidal effect; assay type: in vivo; settings: scored visually after 3 weeks
Method in brief: as §2

Viola tricolor [6] = test: Pre-emergence herbicidal effect; assay type: in vivo; settings: scored visually after 3 weeks
Method in brief: as §2

Matricaria inodora [7] = test: Pre-emergence herbicidal effect; assay type: in vivo; settings: scored visually after 3 weeks
Method in brief: as §2

Setaria viridis [8] = test: Pre-emergence herbicidal effect; assay type: in vivo; settings: scored visually after 3 weeks
Method in brief: as §2

Stellaria media [9] = test: Post-emergence herbicidal effect; assay type: in vivo; settings: assessed visually after about 3 weeks vs untreated controls
Method in brief: as §1

Amaranthus retroflexus [10] = test: Post-emergence herbicidal effect; assay type: in vivo; settings: assessed visually after about 3 weeks vs untreated controls
Method in brief: as §1

Matricaria inodora [11] = test: Post-emergence herbicidal effect; assay type: in vivo; settings: assessed visually after about 3 weeks vs untreated controls
Method in brief: as §1

Setaria viridis [12] = test: Post-emergence herbicidal effect; assay type: in vivo; settings: 320 g/ha, assessed visually after about 3 weeks vs untreated controls
Method in brief: as §1

Abutilon theophrasti = test: Post-emergence herbicidal effect; assay type: in vivo; settings: assessed visually after about 3 weeks vs untreated controls
Method in brief: as §1

Lolium multiflorum = test: Pre-emergence herbicidal effect; assay type: in vivo; settings: Dosage 320 g/ha, scored visually after 3 weeks
Method in brief: as §2

| SMILES | post-emergence efficacy VERPE (Veronica persica [1]; 80 g/ha) [%] | post-emergence efficacy VERPE (Veronica persica [1]; 320 g/ha) [%] | post-emergence efficacy VIOTR (Viola tricolor [2]; 80 g/ha) [%] | post-emergence efficacy VIOTR (Viola tricolor [2]; 320 g/ha) [%] | logP (HCOOH) (logP (HCOOH)) | ECHCG pre-emergence efficacy (herbicidal activity) (Echinochloa crus-galli) [%] | POLCO pre-emergence efficacy (herbicidal activity) (Polygonum convolvulus) [%] | VERPE pre-emergence efficacy (herbicidal activity) (Veronica persica [3]; Dosage 80 g/ha) [%] | VERPE pre-emergence efficacy (herbicidal activity) (Veronica persica [3]; Dosage 320 g/ha) [%] | STEME pre-emergence efficacy (herbicidal activity) (Stellaria media [4]; Dosage 320 g/ha) [%] | AMARE pre-emergence efficacy (herbicidal activity) (Amaranthus retroflexus [5]; Dosage 80 g/ha) [%] | AMARE pre-emergence efficacy (herbicidal activity) (Amaranthus retroflexus [5]; Dosage 320 g/ha) [%] | ALOMY pre-emergence efficacy (herbicidal activity) (Alopecurus myosuroides; Dosage 320 g/ha) [%] | VIOTR pre-emergence efficacy (herbicidal activity) (Viola tricolor [6]; Dosage 80 g/ha) [%] | VIOTR pre-emergence efficacy (herbicidal activity) (Viola tricolor [6]; Dosage 320 g/ha) [%] | MATIN pre-emergence efficacy (herbicidal activity) (Matricaria inodora [7]; Dosage 80 g/ha) [%] | MATIN pre-emergence efficacy (herbicidal activity) (Matricaria inodora [7]; Dosage 320 g/ha) [%] | SETVI pre-emergence efficacy (herbicidal activity) (Setaria viridis [8]; Dosage 320 g/ha) [%] | post-emergence efficacy MATIN (Matricaria inodora [11]; 320 g/ha) [%] | STEME pre-emergence efficacy (herbicidal activity) (Stellaria media [4]; Dosage 80 g/ha) [%] | also measured |
| --- | --- | --- | --- | --- | --- | --- | --- | --- | --- | --- | --- | --- | --- | --- | --- | --- | --- | --- | --- | --- | --- |
| Cc1cc2c(s1)CCCC2Nc1ncc(C(=O)C(F)(F)F)c(N)n1 (racemic) [compound 72] | 80 | 80 | 80 | 100 | oily; logP (HCOOH): 3.90; 1H NMR (CDCl3, 400 MHZ, δ in ppm): 1.85 (m, 3H, 3H of | 80 | 100 | 100 | 100 | 100 | 80 | 100 | 90 | 100 | 100 | 100 | 100 | 100 |  |  | post-emergence efficacy PHBPU (Ipomoea purpurea): 80%; ALOMY pre-emergence efficacy (herbicidal activity) (Alopecurus myosuroides; Dosage 80 g/ha): 80% |
| CNC(=O)c1cnc(NC2CCCc3sc(C)cc32)nc1N (racemic) [compound 266] | 90 | 90 | 80 | 90 | logP (HCOOH): 1.17; 1H NMR (CDCl3, 400 MHZ, δ in ppm): 1.90 (m, 3H, 3H of | 100 |  | 100 | 100 | 100 | 100 | 100 |  |  | 100 |  | 100 | 100 | 60 | 100 | post-emergence efficacy STEME (Stellaria media [9]; 80 g/ha): 80%; post-emergence efficacy STEME (Stellaria media [9]; 320 g/ha): 100%; post-emergence efficacy AMARE (Amaranthus retroflexus [10]; 80 g/ha): 90%; post-emergence efficacy AMARE (Amaranthus retroflexus [10]; 320 g/ha): 100%; post-emergence efficacy MATIN (Matricaria inodora [11]; 80 g/ha): 60%; post-emergence efficacy SETVI (Setaria viridis [12]): 60%; post-emergence efficacy ABUTH (Abutilon theophrasti; 80 g/ha): 80%; post-emergence efficacy ABUTH (Abutilon theophrasti; 320 g/ha): 80%; SETVI pre-emergence efficacy (herbicidal activity) (Setaria viridis [8]; Dosage 80 g/ha): 100%; LOLMU pre-emergence efficacy (herbicidal activity) (Lolium multiflorum): 60% |
| Cc1cc2c(s1)CCCC2Nc1ncc(F)c(N)n1 (stereo not drawn) [compound 12, 5-Fluoro-N2-(2-methyl-4,5,6,7-tetrahydro-1-benzothiophen-4-yl)pyrimidine-2,4-diamine] |  |  |  |  |  |  | 80 |  | 100 | 100 |  | 90 | 90 |  | 100 |  | 90 | 90 |  |  | chromatographic logP (logP (HCOOH)): 1.07 |
| CS(=O)(=O)c1cnc(NC2CCc3ccsc32)nc1N (stereo not drawn) [compound 33, N2-(5,6-Dihydro-4H-cyclopenta[b]thiophen-6-yl)-5-methylsulfonylpyrimidine-2,4-diamine] |  |  | 80 | 90 |  | 100 | 100 | 80 | 100 | 100 | 100 | 100 |  | 100 | 100 | 100 | 100 |  | 90 | 100 | chromatographic logP (logP (HCOOH)): 1.57; LOLMU pre-emergence efficacy (herbicidal activity) (Lolium multiflorum): 100% |
